Legend:
Experiment in all cases: Biomarker study proliferation (CellTiter-Glo)
Type in all cases: cell-based
[1] = test system: A549
In short: (§1)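 Luminescence from CellTiter-Glo, read 15 minutes after reagent addition, measures viable cells after a seven-day compound exposure at 37 °C. Plating is 5000 cells per well in recommended medium such as RPMI 1640 with 10% FBS.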

[2] = test system: GL261
In short: as §1

[3] = test system: HS766T
In short: as §1

[4] = test system: HUH7
In short: as §1

[5] = test system: IGROV1
In short: as §1

[6] = test system: KE97
In short: as §1

[7] = test system: KELLY
In short: as §1

[8] = test system: LS411N
In short: as §1

[9] = test system: MHCC97H
In short: as §1

[10] = test system: MKN1
In short: as §1

[11] = test system: NCIH596
In short: as §1

[12] = test system: PATU8988T
In short: as §1

[13] = test system: Raw264.7
In short: as §1

[14] = test system: SH10TC
In short: as §1

[15] = test system: SNU1079
In short: as §1

[16] = test system: SNU245
In short: as §1

[17] = test system: SW1271
In short: as §1

[18] = test system: T84
In short: as §1

[19] = test system: UACC893
In short: as §1

[20] = 168 h, read-out: Anti-proliferation effect IC50

**Q.** For `Cc1cc(NC2CCN(C(=O)O[C@H]3CCN(C(=O)/C=C/CN(C)C)C3)CC2)n2ncc(C(C)C)c2n1` [Example 1, [(3S)-1-[(E)-4-(dimethylamino)but-2-enoyl]pyrrolidin-3-yl] 4-[(3-isopropyl-5-methyl-pyrazolo[1,5-a]pyrimidin-7-yl)amino]piperidine-1-carboxylate], which “Anti-proliferation effect % Inh.” value ([1]; A549, LUNG, 7 days) is on record?
**A.** The value was 64%.

**Q.** What about the “Anti-proliferation effect Outcome” value ([1]; A549, LUNG, 7 days) of the same compound?
**A.** Its value is “Cytostatic (cytostatic (IC50<1 μM and % inhibition <70%))”.

**Q.** What about the IC50 ([1]; Homo sapiens, A549, 168 h, read-out: Anti-proliferation effect IC50) of the same compound?
**A.** Its IC50 is 139 nM.

**Q.** And the “Anti-proliferation effect % Inh.” value ([2]; GL261, BRAIN, 7 days)?
**A.** The value was 85%.

**Q.** What about the “Anti-proliferation effect Outcome” value ([2]; GL261, BRAIN, 7 days) of the same compound?
**A.** Its value is “Cytotoxic (cytotoxic (IC50<1 μM and % inhibition ≥70%))”.

**Q.** What about the IC50 ([2]; Mus musculus, GL261, 168 h, read-out: Anti-proliferation effect IC50) of the same compound?
**A.** Its IC50 is 38 nM.

**Q.** What about the “Anti-proliferation effect % Inh.” value ([3]; HS766T, PANCREAS, 7 days) of the same compound?
**A.** The value was 72%.

**Q.** What about the “Anti-proliferation effect Outcome” value ([3]; HS766T, PANCREAS, 7 days) of the same compound?
**A.** Its value is “Cytotoxic (cytotoxic (IC50<1 μM and % inhibition ≥70%))”.

**Q.** And the IC50 ([3]; Hs766T, 168 h, read-out: Anti-proliferation effect IC50)?
**A.** The IC50 was 62 nM.

**Q.** And the “Anti-proliferation effect % Inh.” value ([4]; HUH7, LIVER, 7 days)?
**A.** Its value is 64%.

**Q.** And the “Anti-proliferation effect Outcome” value ([4]; HUH7, LIVER, 7 days)?
**A.** Its value is “Cytostatic (cytostatic (IC50<1 μM and % inhibition <70%))”.

**Q.** And the IC50 ([4]; Homo sapiens, Huh-7, 168 h, read-out: Anti-proliferation effect IC50)?
**A.** Its IC50 is 175 nM.

**Q.** And the IC50 ([5]; Homo sapiens, IGROV-1, 168 h, read-out: Anti-proliferation effect IC50)?
**A.** Its IC50 is 72 nM.

**Q.** And the “Anti-proliferation effect % Inh.” value ([5]; IGROV1, OVARY, 7 days)?
**A.** Its value is 70%.

**Q.** What about the “Anti-proliferation effect Outcome” value ([5]; IGROV1, OVARY, 7 days) of the same compound?
**A.** The value was “Cytotoxic (cytotoxic (IC50<1 μM and % inhibition ≥70%))”.

**Q.** And the “Anti-proliferation effect % Inh.” value ([6]; KE97, BLOOD, 7 days)?
**A.** Its value is 58%.

**Q.** And the “Anti-proliferation effect Outcome” value ([6]; KE97, BLOOD, 7 days)?
**A.** Its value is “Cytostatic (cytostatic (IC50<1 μM and % inhibition <70%))”.

**Q.** What about the IC50 ([6]; KE-97, 168 h, read-out: Anti-proliferation effect IC50) of the same compound?
**A.** The IC50 was 158 nM.

**Q.** And the “Anti-proliferation effect % Inh.” value ([7]; KELLY, CNS, 7 days)?
**A.** Its value is 80%.

**Q.** And the “Anti-proliferation effect Outcome” value ([7]; KELLY, CNS, 7 days)?
**A.** Its value is “Cytotoxic (cytotoxic (IC50<1 μM and % inhibition ≥70%))”.

**Q.** And the IC50 ([7]; Kelly, 168 h, read-out: Anti-proliferation effect IC50)?
**A.** The IC50 was 58 nM.

**Q.** What about the IC50 ([8]; Homo sapiens, LS-411N, 168 h, read-out: Anti-proliferation effect IC50) of the same compound?
**A.** The IC50 was 1000 nM.

**Q.** What about the “Anti-proliferation effect % Inh.” value ([8]; LS411N, INTESTINE, 7 days) of the same compound?
**A.** The value was 45%.

**Q.** What about the “Anti-proliferation effect Outcome” value ([8]; LS411N, INTESTINE, 7 days) of the same compound?
**A.** Its value is “Insensitive (insensitive (IC50≥1 μM))”.

**Q.** What about the IC50 ([9]; Homo sapiens, 168 h, read-out: Anti-proliferation effect IC50) of the same compound?
**A.** Its IC50 is 243 nM.

**Q.** What about the “Anti-proliferation effect % Inh.” value ([9]; LIVER, 7 days) of the same compound?
**A.** The value was 59%.

**Q.** And the “Anti-proliferation effect Outcome” value ([9]; LIVER, 7 days)?
**A.** The value was “Cytostatic (cytostatic (IC50<1 μM and % inhibition <70%))”.

**Q.** And the IC50 ([10]; Homo sapiens, MKN-1, 168 h, read-out: Anti-proliferation effect IC50)?
**A.** Its IC50 is 23 nM.

**Q.** What about the “Anti-proliferation effect % Inh.” value ([10]; MKN1, STOMACH, 7 days) of the same compound?
**A.** Its value is 80%.

**Q.** And the “Anti-proliferation effect Outcome” value ([10]; MKN1, STOMACH, 7 days)?
**A.** Its value is “Cytotoxic (cytotoxic (IC50<1 μM and % inhibition ≥70%))”.

**Q.** And the IC50 ([11]; Homo sapiens, NCI-H596, 168 h, read-out: Anti-proliferation effect IC50)?
**A.** Its IC50 is 922 nM.

**Q.** And the “Anti-proliferation effect % Inh.” value ([11]; NCIH596, LUNG, 7 days)?
**A.** Its value is 46%.

**Q.** What about the “Anti-proliferation effect Outcome” value ([11]; NCIH596, LUNG, 7 days) of the same compound?
**A.** The value was “Cytostatic (cytostatic (IC50<1 μM and % inhibition <70%))”.

**Q.** What about the IC50 ([12]; Homo sapiens, PaTu 8988t, 168 h, read-out: Anti-proliferation effect IC50) of the same compound?
**A.** Its IC50 is 201 nM.

**Q.** And the “Anti-proliferation effect % Inh.” value ([12]; PATU8988T, PANCREAS, 7 days)?
**A.** Its value is 55%.

**Q.** And the “Anti-proliferation effect Outcome” value ([12]; PATU8988T, PANCREAS, 7 days)?
**A.** Its value is “Cytostatic (cytostatic (IC50<1 μM and % inhibition <70%))”.

**Q.** And the IC50 ([13]; Mus musculus, RAW264.7, 168 h, read-out: Anti-proliferation effect IC50)?
**A.** Its IC50 is 355 nM.

**Q.** What about the “Anti-proliferation effect % Inh.” value ([13]; Raw264.7, 7 days) of the same compound?
**A.** The value was 62%.

**Q.** What about the “Anti-proliferation effect Outcome” value ([13]; Raw264.7, 7 days) of the same compound?
**A.** Its value is “Cytostatic (cytostatic (IC50<1 μM and % inhibition <70%))”.

**Q.** And the “Anti-proliferation effect % Inh.” value ([14]; SH10TC, STOMACH, 7 days)?
**A.** Its value is 58%.

**Q.** What about the “Anti-proliferation effect Outcome” value ([14]; SH10TC, STOMACH, 7 days) of the same compound?
**A.** The value was “Cytostatic (cytostatic (IC50<1 μM and % inhibition <70%))”.

**Q.** And the IC50 ([14]; SH-10-TC, 168 h, read-out: Anti-proliferation effect IC50)?
**A.** The IC50 was 147 nM.

**Q.** What about the IC50 [15, 20] of the same compound?
**A.** The IC50 was 38 nM.

**Q.** What about the “Anti-proliferation effect % Inh.” value ([15]; SNU1079, BILIARY, 7 days) of the same compound?
**A.** Its value is 89%.

**Q.** And the “Anti-proliferation effect Outcome” value ([15]; SNU1079, BILIARY, 7 days)?
**A.** The value was “Cytotoxic (cytotoxic (IC50<1 μM and % inhibition ≥70%))”.

**Q.** And the IC50 [16, 20]?
**A.** Its IC50 is 1090 nM.

**Q.** What about the “Anti-proliferation effect % Inh.” value ([16]; SNU245, BILIARY, 7 days) of the same compound?
**A.** Its value is −5%.

**Q.** And the “Anti-proliferation effect Outcome” value ([16]; SNU245, BILIARY, 7 days)?
**A.** Its value is “Insensitive (insensitive (IC50≥1 μM))”.

**Q.** And the IC50 ([17]; SW1271, 168 h, read-out: Anti-proliferation effect IC50)?
**A.** Its IC50 is 24 nM.

**Q.** What about the “Anti-proliferation effect % Inh.” value ([17]; SW1271, LUNG, 7 days) of the same compound?
**A.** The value was 67%.

**Q.** What about the “Anti-proliferation effect Outcome” value ([17]; SW1271, LUNG, 7 days) of the same compound?
**A.** Its value is “Cytostatic (cytostatic (IC50<1 μM and % inhibition <70%))”.

**Q.** And the IC50 ([18]; Homo sapiens, T84, 168 h, read-out: Anti-proliferation effect IC50)?
**A.** Its IC50 is 308 nM.

**Q.** What about the “Anti-proliferation effect % Inh.” value ([18]; T84, INTESTINE, 7 days) of the same compound?
**A.** The value was 61%.

**Q.** What about the “Anti-proliferation effect Outcome” value ([18]; T84, INTESTINE, 7 days) of the same compound?
**A.** Its value is “Cytostatic (cytostatic (IC50<1 μM and % inhibition <70%))”.

**Q.** And the IC50 ([19]; Homo sapiens, UACC-893, 168 h, read-out: Anti-proliferation effect IC50)?
**A.** Its IC50 is 4150 nM.

**Q.** And the “Anti-proliferation effect % Inh.” value ([19]; UACC893, BREAST, 7 days)?
**A.** The value was −51%.

**Q.** What about the “Anti-proliferation effect Outcome” value ([19]; UACC893, BREAST, 7 days) of the same compound?
**A.** Its value is “Insensitive (insensitive (IC50≥1 μM))”.
